Results taken from patent publication US6300331A, “Naphthalimidobenzamide derivatives” (Taiho Pharmaceutical Co., Ltd., priority 1998, dated 2001).
Structures can show the parent of a compound that is named as a salt.

What follows are molecules tested on KB cells (assay: Cytotoxicity against KB cells (crystal violet dying method)). Details: Homo sapiens; KB cells, 72 hours, 50% proliferation inhibition; read-out: Cytotoxicity [IC50 (μM)].
Format: cell-based
Procedure: Test 1 Cytotoxicity against KB cells
The residue was re-suspended in an MEM medium containing 10% fetal bovine serum. Then, an equivalent amount of a 0.2% trypan blue solution was added to a portion of the cell suspension, followed by mixing. The number of living cells which had not been dyed with the trypan blue was counted by a hemocytometer and the suspension was diluted and adjusted with the above-described culture medium to give a cell concentration of 1×10^4 cells/ml. Each well of a 96-well plate was inoculated with a 100-μl portion of the resulting suspension, in other words, was inoculated to give a concentration of 1×10^3 cells/well.
To the cells cultured in a CO2 incubator for 24 hours after the inoculation was added 100 μl/well of a medicament solution, followed by culturing for 72 hours. To a control was added 100 μl of an MEM medium.
The cytotoxicity of the medicament was determined from a change in the number of the cells by using the crystal violet dying method.
After washing the plate with water, 100 μl/well of a 0.05% crystal violet solution dissolved in 20% methanol was added to dye the cells therewith for about 15 minutes. The plate was washed to remove the unbound crystal violet, followed by the addition of 100 μl/well of 0.05M NaH2 PO4 /ethanol (1:1 v/v), whereby the crystal violet bound to the cellular protein was extracted.
CN(C)CCNC(=O)c1cc(C(=O)NCCNCCN2C(=O)c3cccc4cc([N+](=O)[O-])cc(c34)C2=O)cc(N2C(=O)c3cccc4cc([N+](=O)[O-])cc(c34)C2=O)c1 [Example 42, 1-[N-(2-dimethylaminoethyl)carbamoyl]-3-(3-nitro-1,8-naphthalimido)-5-[N-[2-[[2-(3-nitro-1,8-naphthalimido)ethyl]amino]ethyl]carbamoyl]benzene hydrochloride] gave an IC50 of 0.15 µM.
CN1CCN(C(=O)c2cc(C(=O)NCCCNCCN3C(=O)c4cccc5cc([N+](=O)[O-])cc(c45)C3=O)cc(N3C(=O)c4cccc5cc([N+](=O)[O-])cc(c45)C3=O)c2)CC1 [Example 56 (A), 1-(4-methylpiperazino)carbonyl-3-(3-nitro-1,8-naphthalimido)-5-[N-[3-[[2-(3-nitro-1,8-naphthalimido)ethyl]amino]propyl]carbamoyl]benzene hydrochloride] showed an IC50 of 0.039 µM.
O=C(NCCNCCNC(=O)c1ccnc2ccccc12)c1cc(C(=O)NCCNCCN2C(=O)c3cccc4cc([N+](=O)[O-])cc(c34)C2=O)cc(N2C(=O)c3cccc4cc([N+](=O)[O-])cc(c34)C2=O)c1 [Example 14, 1-(3-nitro-1,8-naphthalimido)-3-[N-[2-[[2-(3-nitro-1,8-naphthalimido)ethyl]amino]ethyl]carbamoyl]-5-[N-[2-[[2-(quinoline-4-carbonylamino)ethyl]amino]ethyl]carbamoyl]benzene trihydrochloride] showed an IC50 of 1.3 µM.
O=C(NCCNCCCN1C(=O)c2cccc3cc([N+](=O)[O-])cc(c23)C1=O)c1cccc(N2C(=O)c3cccc4cc([N+](=O)[O-])cc(c34)C2=O)c1 [Example 40 (A), 1-(3-nitro-1,8-naphthalimido)-3-[N-[2-[[3-(3-nitro-1,8-naphthalimido)propyl]amino]ethyl]carbamoyl]benzene hydrochloride] was tested, and the IC50 was 0.003 µM.
For CN1CCN(C(=O)c2cc(C(=O)NCCNCCCN3C(=O)c4cccc5cc([N+](=O)[O-])cc(c45)C3=O)cc(N3C(=O)c4cccc5cc([N+](=O)[O-])cc(c45)C3=O)c2)CC1 [Example 56 (B), 1-(4-methylpiperazino)carbonyl-3-(3-nitro-1,8-naphthalimido)-5-[N-[2-[[3-(3-nitro-1,8-naphthalimido)propyl]amino]ethyl]carbamoyl]benzene hydrochloride], the IC50 was 0.12 µM.
CN1CCN(C(=O)c2cc(C(=O)NCCNCCN3C(=O)c4cccc5cc([N+](=O)[O-])cc(c45)C3=O)cc(N3C(=O)c4cccc5cccc(c45)C3=O)c2)CC1 [Example 50, 1-(4-methylpiperazino)carbonyl-3-(1,8-naphthalimido)-5-[N-[2-[[2-(3-nitro-1,8-naphthalimido)ethyl]amino]ethyl]carbamoyl]benzene hydrochloride] was tested, and the IC50 was 0.022 µM.
Cn1c(C(=O)NCCNCCNC(=O)c2cc(C(=O)NCCNCCN3C(=O)c4cccc5cc([N+](=O)[O-])cc(c45)C3=O)cc(N3C(=O)c4cccc5cc([N+](=O)[O-])cc(c45)C3=O)c2)cc2ccccc21 [Example 16, 1-(3-nitro-1,8-naphthalimido)-3-[N-[2-[[2-(3-nitro-1,8-naphthalimido)ethyl]amino]ethyl]carbamoyl]-5-[N-[2-[[2-(1-methylindole-2-carbonylamino)ethyl]amino]ethyl]carbamoyl]benzene dihydrochloride] showed an IC50 of 6.6 µM.
Molecule CN1CCN(C(=O)c2cc(C(=O)NCCNCCN3C(=O)c4cccc5cccc(c45)C3=O)cc(N3C(=O)c4cccc5cccc(c45)C3=O)c2)CC1 [Example 51, 1-(4-methylpiperazino)carbonyl-3-(1,8-naphthalimido)-5-[N-[2-[[2-(1,8-naphthalimido)ethyl]amino]ethyl]carbamoyl]benzene hydrochloride] has an IC50 of 0.025 µM.
With O=C(NCCNCCN1C(=O)c2cccc3cc([N+](=O)[O-])cc(c23)C1=O)c1cccc(N2C(=O)c3cccc4cc([N+](=O)[O-])cc(c34)C2=O)c1 [Example 39, 1-(3-nitro-1,8-naphthalimido)-3-[N-[2-[[2-(3-nitro-1,8-naphthalimido)ethyl]amino]ethyl]carbamoyl]benzene hydrochloride] the IC50 was 0.0053 µM.
In the case of CCN1CCN(C(=O)c2cc(C(=O)NCCNCCN3C(=O)c4cccc5cccc(c45)C3=O)cc(N3C(=O)c4cccc5cc([N+](=O)[O-])cc(c45)C3=O)c2)CC1 [Example 53, 1-(4-ethylpiperazino)carbonyl-3-[N-[2-[[2-(1,8-naphthalimido)ethyl]amino]ethyl]carbamoyl]-5-(3-nitro-1,8-naphthalimido)benzene hydrochloride], the IC50 is reported as 0.013 µM.
O=C(NCCCNCCN1C(=O)c2cccc3cc([N+](=O)[O-])cc(c23)C1=O)c1cccc(N2C(=O)c3cccc4cc([N+](=O)[O-])cc(c34)C2=O)c1 [Example 40 (B), 1-(3-nitro-1,8-naphthalimido)-3-[N-[3-[[2-(3-nitro-1,8-naphthalimido)ethyl]amino]propyl]carbamoyl]benzene hydrochloride] showed an IC50 of 0.00023 µM.
O=C(NCCNCCN1C(=O)c2cccc3cc([N+](=O)[O-])cc(c23)C1=O)c1cc(C(=O)N2CCOCC2)cc(N2C(=O)c3cccc4cc([N+](=O)[O-])cc(c34)C2=O)c1 [Example 48, 1-morpholinocarbonyl-3-(3-nitro-1,8-naphthalimido)-5-[N-[2-[[2-(3-nitro-1,8-naphthalimido)ethyl]amino]ethyl]carbamoyl]benzene hydrochloride] showed an IC50 of 0.052 µM.
Work on O=C(NCCNCCN1C(=O)c2cccc3cccc(c23)C1=O)c1cc(C(=O)NCCN2CCCCC2)cc(N2C(=O)c3cccc4cc([N+](=O)[O-])cc(c34)C2=O)c1 [Example 47, 1-[N-[2-[[2-(1,8-naphthalimido)ethyl]amino]ethyl]carbamoyl]-3-(3-nitro-1,8-naphthalimido)-5-[N-(2-piperidinoethyl)carbamoyl]benzene hydrochloride] yielded an IC50 of 0.0035 µM.
Molecule Cn1cc(NC(=O)c2cc(NC=O)cn2C)cc1C(=O)NCCNCCNC(=O)c1cc(C(=O)NCCNCCN2C(=O)c3cccc4cc([N+](=O)[O-])cc(c34)C2=O)cc(N2C(=O)c3cccc4cc([N+](=O)[O-])cc(c34)C2=O)c1 [Example 38, 1-[N-[2-[[2-[4-(4-formamido-1-methylpyrrole-2-carboxyamido)-1-methylpyrrole-2-carboxamido]ethyl]amino]ethyl]carbamoyl]-3-(3-nitro-1,8-naphthalimido)-5-[N-[2-[[2-(3-nitro-1,8-naphthalimido)ethyl]amino]ethyl]carbamoyl]benzene dihydrochloride] has an IC50 of 6.9 µM.
Work on O=C(NCCNCCNC(=O)c1cnc2ccccc2c1)c1cc(C(=O)NCCNCCN2C(=O)c3cccc4cc([N+](=O)[O-])cc(c34)C2=O)cc(N2C(=O)c3cccc4cc([N+](=O)[O-])cc(c34)C2=O)c1 [Example 13, 1-(3-nitro-1,8-naphthalimido)-3-[N-[2-[[2-(3-nitro-1,8-naphthalimido)ethyl]amino]ethyl]carbamoyl]-5-[N-[2-[[2-(quinoline-3-carbonylamino)ethyl]amino]ethyl]carbamoyl]benzene trihydrochloride] yielded an IC50 of 1.6 µM.
With CN(C)CCCNC(=O)c1cc(C(=O)NCCNCCN2C(=O)c3cccc4cc([N+](=O)[O-])cc(c34)C2=O)cc(N2C(=O)c3cccc4cc([N+](=O)[O-])cc(c34)C2=O)c1 [Example 41, 1-[N-(3-dimethylaminopropyl)carbamoyl]-3-(3-nitro-1,8-naphthalimido)-5-[N-[2-[[2-(3-nitro-1,8-naphthalimido)ethyl]amino]ethyl]carbamoyl]benzene hydrochloride] the IC50 was 3.1 µM.
Molecule O=C(NCCNCCN1C(=O)c2cccc3c(Cl)ccc(c23)C1=O)c1cc(C(=O)NCCNCCN2C(=O)c3cccc4c(Cl)ccc(c34)C2=O)cc(N2C(=O)c3cccc4cccc(c34)C2=O)c1 [Example 9, 1,3-bis[N-[2-[[2-(4-chloro-1,8-naphthalimido)ethyl]amino]ethyl]carbamoyl]-5-(1,8-naphthalimido)benzene dihydrochloride] has an IC50 of 0.023 µM.
O=C(NCCNCCNC(=O)c1cnc2ccccc2n1)c1cc(C(=O)NCCNCCN2C(=O)c3cccc4cc([N+](=O)[O-])cc(c34)C2=O)cc(N2C(=O)c3cccc4cc([N+](=O)[O-])cc(c34)C2=O)c1 [Example 15, 1-(3-nitro-1,8-naphthalimido)-3-[N-[2-[[2-(3-nitro-1,8-naphthalimido)ethyl]amino]ethyl]carbamoyl]-5-[N-[2-[[2-(quinoxaline-2-carbonylamino)ethyl]amino]ethyl]carbamoyl]benzene trihydrochloride] gave an IC50 of 0.21 µM.
Work on O=C(NCCNCCn1c2ccccc2c2ccncc21)c1cc(C(=O)NCCNCCn2c3ccccc3c3ccncc32)cc(N2C(=O)c3cccc4cc([N+](=O)[O-])cc(c34)C2=O)c1 [Example 3, 1,3-bis[N-[2-[[2-(pyrido[3,4-b]indol-9-yl)ethyl]amino]ethyl]carbamoyl]-1-(3-nitro-1,8-naphthalimido)benzene tetratrifluoroacetate] yielded an IC50 of 2.6 µM.
Work on CN(C)CCCNC(=O)c1cc(NC(=O)CCNC(=O)c2cc(C(=O)NCCNCCN3C(=O)c4cccc5cc([N+](=O)[O-])cc(c45)C3=O)cc(N3C(=O)c4cccc5cc([N+](=O)[O-])cc(c45)C3=O)c2)cn1C [Example 33, 1-[N-[2-[N-[2-[N-(3-dimethylaminopropyl)carbamoyl]-1-methylpyrrol-4-yl]carbamoyl]ethyl]carbamoyl]-3-(3-nitro-1,8-naphthalimido)-5-[N-[2-[[2-(3-nitro-1,8-naphthalimido)ethyl]amino]ethyl]carbamoyl]benzene dihydrochloride] yielded an IC50 of 7.1 µM.
